Experimental data taken from PubChem BioAssay (NCI).
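The compound was tested at five concentrations on cells cultured in 96-well plates, with a 48-hour exposure period. Here, GI50 denotes the concentration required for 50% inhibition of growth. TGI: total growth inhibition.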

Key:
Assay in all cases: NCI anticancer screen, dose series, 48 h
[1] = test system: 786-0 renal
[2] = test system: A498 renal
[3] = test system: A549 NSCLC
[4] = test system: ACHN renal
[5] = test system: BT-549 breast
[6] = test system: CAKI-1 renal
[7] = test system: CCRF-CEM leukemia
[8] = test system: COLO 205 colon
[9] = test system: DU-145 prostate
[10] = test system: EKVX NSCLC
[11] = test system: HCC-2998 colon
[12] = test system: HCT-116 colon
[13] = test system: HCT-15 colon
[14] = test system: HL-60(TB) leukemia
[15] = test system: HOP-62 NSCLC
[16] = test system: HOP-92 NSCLC
[17] = test system: HS 578T breast
[18] = test system: HT29 colon
[19] = test system: IGROV1 ovarian
[20] = test system: K-562 leukemia
[21] = test system: KM12 colon
[22] = test system: LOX IMVI melanoma
[23] = test system: M14 melanoma
[24] = test system: MCF7 breast
[25] = test system: MDA-MB-231 breast
[26] = test system: MDA-MB-435
[27] = test system: MOLT-4 leukemia
[28] = test system: NCI-H226 lung
[29] = test system: NCI-H23 lung
[30] = test system: NCI-H460 lung
[31] = test system: NCI-H522 lung
[32] = test system: NCI/ADR-RES ovarian
[33] = test system: OVCAR-3 ovarian
[34] = test system: OVCAR-4 ovarian
[35] = test system: OVCAR-5 ovarian
[36] = test system: OVCAR-8 ovarian
[37] = test system: PC-3 prostate
[38] = test system: RPMI-8226 leukemia
[39] = test system: RXF 393 renal
[40] = test system: SF-268 CNS
[41] = test system: SF-295 CNS
[42] = test system: SF-539 CNS
[43] = test system: SK-MEL-2 melanoma
[44] = test system: SK-MEL-28 melanoma
[45] = test system: SK-MEL-5 melanoma
[46] = test system: SK-OV-3 ovarian
[47] = test system: SN12C renal
[48] = test system: SNB-19 CNS
[49] = test system: SNB-75 CNS
[50] = test system: SR leukemia
[51] = test system: SW-620 colon
[52] = test system: T-47D breast
[53] = test system: TK-10 renal
[54] = test system: U251 CNS
[55] = test system: UACC-257 melanoma
[56] = test system: UACC-62 melanoma
[57] = test system: UO-31 renal

C=C1CC[C@@H]2[C@](C)(COC(C)=O)[C@H](OC(C)=O)CC[C@@]2(C)[C@@H]1CC(Nc1ccc(S(=O)(=O)NC(C)=O)cc1)C1=CCOC1=O (some centres undefined)
GI50 [1]: 2.44 µM
TGI [1]: 7.98 µM
GI50 [2]: 10.3 µM
TGI [2]: 20.1 µM
GI50 [3]: 8.41 µM
TGI [3]: 18.3 µM
GI50 [4]: 7.54 µM
TGI [4]: 16.5 µM
GI50 [5]: 2.32 µM
TGI [5]: 7.93 µM
GI50 [6]: 3.31 µM
TGI [6]: 11.2 µM
GI50 [7]: 1.93 µM
TGI [7]: 6.26 µM
GI50 [8]: 1.81 µM
TGI [8]: 4.82 µM
GI50 [9]: 2.8 µM
TGI [9]: 9.74 µM
GI50 [10]: 10.8 µM
TGI [10]: 20.9 µM
GI50 [11]: 7.51 µM
TGI [11]: 17.3 µM
GI50 [12]: 1.67 µM
TGI [12]: 3.66 µM
GI50 [13]: 1.53 µM
TGI [13]: 4.36 µM
GI50 [14]: 2.45 µM
TGI [14]: 12 µM
GI50 [15]: 10.8 µM
TGI [15]: 21.1 µM
GI50 [16]: 6.5 µM
TGI [16]: 15.8 µM
GI50 [17]: 8.45 µM
TGI [17]: 38.8 µM
GI50 [18]: 1.57 µM
TGI [18]: 3.55 µM
GI50 [19]: 5.31 µM
TGI [19]: 15.4 µM
GI50 [20]: 2.58 µM
TGI [20]: 17.6 µM
GI50 [21]: 5.11 µM
TGI [21]: 15.9 µM
GI50 [22]: 1.25 µM
TGI [22]: 2.42 µM
GI50 [23]: 2.86 µM
TGI [23]: 11.9 µM
GI50 [24]: 1.92 µM
TGI [24]: 11.3 µM
GI50 [25]: 3.32 µM
TGI [25]: 11.6 µM
GI50 [26]: 2.79 µM
TGI [26]: 10.6 µM
GI50 [27]: 2.2 µM
TGI [27]: 6.66 µM
GI50 [28]: 1.92 µM
TGI [28]: 4.62 µM
GI50 [29]: 5.52 µM
TGI [29]: 17.4 µM
GI50 [30]: 6.72 µM
TGI [30]: 17.9 µM
GI50 [31]: 1.44 µM
TGI [31]: 4.42 µM
GI50 [32]: 2.51 µM
TGI [32]: 9.14 µM
GI50 [33]: 1.49 µM
TGI [33]: 3.02 µM
GI50 [34]: 4.14 µM
TGI [34]: 13.7 µM
GI50 [35]: 4.82 µM
TGI [35]: 15.4 µM
GI50 [36]: 2.25 µM
TGI [36]: 8.42 µM
GI50 [37]: 6.56 µM
TGI [37]: 16.8 µM
GI50 [38]: 1.84 µM
TGI [38]: 6.53 µM
GI50 [39]: 1.96 µM
TGI [39]: 4.69 µM
GI50 [40]: 8.78 µM
TGI [40]: 20.5 µM
GI50 [41]: 11.5 µM
TGI [41]: 22 µM
GI50 [42]: 2.39 µM
TGI [42]: 7.77 µM
GI50 [43]: 8.68 µM
TGI [43]: 19.1 µM
GI50 [44]: 3.69 µM
TGI [44]: 13.2 µM
GI50 [45]: 3.22 µM
TGI [45]: 11.5 µM
GI50 [46]: 9.31 µM
TGI [46]: 18.7 µM
GI50 [47]: 1.78 µM
TGI [47]: 5.4 µM
GI50 [48]: 8.19 µM
TGI [48]: 18.9 µM
GI50 [49]: 3.08 µM
TGI [49]: 12.7 µM
GI50 [50]: 0.991 µM
TGI [50]: 18.1 µM
GI50 [51]: 1.61 µM
TGI [51]: 3.58 µM
GI50 [52]: 2.46 µM
TGI [52]: 12 µM
GI50 [53]: 8.01 µM
TGI [53]: 16.9 µM
GI50 [54]: 3.49 µM
TGI [54]: 12 µM
GI50 [55]: 6.82 µM
TGI [55]: 16 µM
GI50 [56]: 2.59 µM
TGI [56]: 10.8 µM
GI50 [57]: 3.71 µM
TGI [57]: 13.2 µM
